Experimental data published in publication PMC2853259 (Analytical biochemistry, 2010).

Biological target: Paraoxonase 1 (PON1) (Homo sapiens, UniProt P27169)
Format: cell-based

Sequence of Paraoxonase 1 (PON1) (P27169 2-355): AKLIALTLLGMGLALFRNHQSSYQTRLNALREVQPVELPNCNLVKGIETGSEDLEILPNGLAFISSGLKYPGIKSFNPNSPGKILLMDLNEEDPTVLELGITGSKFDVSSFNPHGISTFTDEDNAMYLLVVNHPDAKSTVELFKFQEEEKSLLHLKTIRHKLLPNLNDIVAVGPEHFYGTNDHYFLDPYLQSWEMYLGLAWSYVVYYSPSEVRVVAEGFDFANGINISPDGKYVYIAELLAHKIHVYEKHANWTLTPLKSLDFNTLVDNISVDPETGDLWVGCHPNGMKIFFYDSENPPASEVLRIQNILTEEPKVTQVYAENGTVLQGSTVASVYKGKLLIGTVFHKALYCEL

Oc1ccc2ccccc2n1 [2HQ, 2-hydroxyquinoline]
IC50: 5.4 ± 3.6 µM
